Reference: patent publication US4209511A, “Aminoglycoside antibiotics and process for production thereof” (Yamanouchi Pharmaceutical Co., Ltd., priority 1978, dated 1980)
In brackets after ≈: the same amount, converted by molar mass. Where two headings read alike, the source gives them in different places.

Experiments:
[1] = system: Escherichia coli K-12 R-5; assay: Minimum inhibitory concentration, Escherichia coli K-12 R-5; format: cell-based; conditions: for MIC: K12R5, Escherichia coli K-12 R-5 (inactivates aminoglycosides with an acetyltransferase)
[2] = system: Staphylococcus aureus Smith; assay: Minimum inhibitory concentration, Staphylococcus aureus Smith; format: cell-based; conditions: read-out: Minimum Inhibitory Concentration
[3] = system: Proteus vulgaris OXK US; assay: Minimum inhibitory concentration, Proteus vulgaris OXK US; format: cell-based; conditions: read-out: Minimum Inhibitory Concentration
[4] = system: Mycobacterium phlei; assay: Minimum inhibitory concentration, Mycobacterium phlei; format: cell-based; conditions: Mycolicibacterium phlei, read-out: Minimum Inhibitory Concentration
[5] = system: Pseudomonas aeruginosa ATCC 8689; assay: Minimum inhibitory concentration, Pseudomonas aeruginosa ATCC 8689; format: cell-based
[6] = system: Staphylococcus aureus Onuma (PC-,SM-,Mac-resistant); assay: Minimum inhibitory concentration, Staphylococcus aureus Onuma (PC-,SM-,Mac-resistant); format: cell-based; conditions: read-out: Minimum Inhibitory Concentration
[7] = system: Salmonella enteritidis 1891; assay: Minimum inhibitory concentration, Salmonella enteritidis 1891; format: cell-based; conditions: Salmonella enterica, read-out: Minimum Inhibitory Concentration
[8] = system: Shigella sonnei II 37148; assay: Minimum inhibitory concentration, Shigella sonnei II 37148; format: cell-based; conditions: II37148
[9] = system: Escherichia coli K-12 ML-1629; assay: Minimum inhibitory concentration, Escherichia coli K-12 ML-1629; format: cell-based; conditions: K12ML1629; Escherichia coli K-12 ML-1629 (inactivates aminoglycosides with a phosphotransferase)
[10] = system: Escherichia coli NIHJ; assay: Minimum inhibitory concentration, Escherichia coli NIHJ; format: cell-based; conditions: read-out: Minimum Inhibitory Concentration
[11] = system: Staphylococcus aureus (PC-,SM-,TC-,KM-,Mac-resistant); assay: Minimum inhibitory concentration, Staphylococcus aureus (PC-,SM-,TC-,KM-,Mac-resistant); format: cell-based; conditions: read-out: Minimum Inhibitory Concentration
[12] = system: Pseudomonas melanogenum IAM 1655; assay: Minimum inhibitory concentration, Pseudomonas melanogenum IAM 1655; format: cell-based
[13] = system: Micrococcus flavus ATCC 10240; assay: Minimum inhibitory concentration, Micrococcus flavus ATCC 10240; format: cell-based
[14] = system: Pseudomonas aeruginosa 99; assay: Minimum inhibitory concentration, Pseudomonas aeruginosa 99; format: cell-based; conditions: Pseudomonas aeruginosa 99 (inactivates aminoglycosides with an acetyltransferase)
[15] = system: Sarcina lutea ATCC 9341; assay: Minimum inhibitory concentration, Sarcina lutea ATCC 9341; format: cell-based; conditions: Micrococcus luteus
[16] = system: Pseudomonas aeruginosa GN-315; assay: Minimum inhibitory concentration, Pseudomonas aeruginosa GN-315; format: cell-based
[17] = Solubility; format: physicochemical; conditions: free base (lyophilized product)
[18] = in vivo; conditions: mouse, iv
[19] = Pseudomonas aeruginosa, ATCC8689, read-out: Minimum Inhibitory Concentration
[20] = Staphylococcus aureus Onuma (PC-,SM-,Mac-resistant)
[21] = Staphylococcus aureus (PC-,SM-,TC-,KM-,Mac-resistant)
[22] = Pseudomonas, IAM1655, read-out: Minimum Inhibitory Concentration
[23] = ATCC10240, Micrococcus flavus ATCC 10240, read-out: Minimum Inhibitory Concentration
[24] = ATCC9341, read-out: Minimum Inhibitory Concentration
[25] = GN315, Pseudomonas aeruginosa GN-315, read-out: Minimum Inhibitory Concentration
[26] = ATCC8689, Pseudomonas aeruginosa ATCC 8689, read-out: Minimum Inhibitory Concentration
[27] = IAM1655, Pseudomonas melanogenum IAM 1655, read-out: Minimum Inhibitory Concentration
[28] = ATCC9341, Sarcina lutea ATCC 9341, read-out: Minimum Inhibitory Concentration
[29] = Pseudomonas aeruginosa, GN315, read-out: Minimum Inhibitory Concentration
[30] = Micrococcus flavus, ATCC10240, read-out: Minimum Inhibitory Concentration

SMILES | MIC [1] [µg/mL] | MIC ([2]; Staphylococcus aureus Smith) [µg/mL] | MIC ([3]; Proteus vulgaris) [µg/mL] | MIC [4] [µg/mL] | MIC [5, 19] [µg/mL] | MIC [6, 20] [µg/mL] | MIC ([7]; Salmonella enteritidis 1891) [µg/mL] | MIC [8] [µg/mL] | MIC [9] [µg/mL] | MIC ([10]; Escherichia coli NIHJ) [µg/mL] | MIC [11, 21] [µg/mL] | MIC [12, 22] [µg/mL] | MIC [13, 23] [µg/mL] | MIC [14] [µg/mL] | MIC [15, 24] [µg/mL] | MIC [16, 25] [µg/mL] | MIC ([4]; Mycobacterium phlei) [µg/mL] | Solubility in acetone [17] | Solubility in chloroform, benzene, ethyl acetate, butyl acetate, ether, n-hexane, etc. [17] | Solubility in ethanol [17] | also measured
NC[C@@H]1CC[C@@H](N)[C@@H](O[C@H]2[C@H](O)[C@@H](O[C@H]3O[C@H](CO)[C@@H](O)[C@H](N)[C@H]3O)[C@H](N)C[C@@H]2N)O1 [DKB, Dibekacin, reference compound] | 100 (≈ 221 µM) | 0.78 (≈ 1.73 µM) | 1.56 (≈ 3.45 µM) | 1.56 (≈ 3.45 µM) | 1.56 (≈ 3.45 µM) | 0.19 (≈ 0.421 µM) | 0.78 (≈ 1.73 µM) | 1.56 (≈ 3.45 µM) | 1.56 (≈ 3.45 µM) | 0.78 (≈ 1.73 µM) | 0.19 (≈ 0.421 µM) | 1.56 (≈ 3.45 µM) | 3.13 (≈ 6.93 µM) | 1.56 (≈ 3.45 µM) | 1.56 (≈ 3.45 µM) | 100 (≈ 221 µM) | – | – | – | – | –
CNC1C(O)C(OC2C(N)CC(N)C(OC3OC(CN)CCC3O)C2O)OC(CO)C1(C)O (centres unmarked) [I-A2, 3"-N-Methyl-4"-C-methyl-3',4'-dideoxykanamycin A or its 4"-epimer] | > 100 | – | 3.13 (≈ 6.51 µM) | – | – | – | 1.56 (≈ 3.25 µM) | 3.13 (≈ 6.51 µM) | 3.13 (≈ 6.51 µM) | 1.56 (≈ 3.25 µM) | 6.25 (≈ 13 µM) | – | 0.78 (≈ 1.62 µM) | 12.5 (≈ 26 µM) | – | > 100 | 1.56 (≈ 3.25 µM) | sparingly soluble | insoluble | sparingly soluble | MIC ([2]; Staphylococcus aureus): 3.13 µg/mL (≈ 6.51 µM); MIC [5, 26]: 6.25 µg/mL (≈ 13 µM); MIC ([6]; Staphylococcus aureus): 3.13 µg/mL (≈ 6.51 µM); Solubility in methanol [17]: soluble; Solubility in water [17]: Very easily soluble; MIC [12, 27]: 6.25 µg/mL (≈ 13 µM); MIC [15, 28]: 0.78 µg/mL (≈ 1.62 µM)
CNCC1CCC(N)C(OC2C(N)CC(N)C(OC3OC(CO)C(C)(O)C(NC)C3O)C2O)O1 (centres unmarked) [I-B1, 3"-N-Methyl-4"-C-methyl-3',4'-dideoxy-6'-N-methylkanamycin B or its 4"-epimer] | 1.56 (≈ 3.16 µM) | 0.39 (≈ 0.79 µM) | – | – | 3.13 (≈ 6.34 µM) | 0.19 (≈ 0.385 µM) | 0.78 (≈ 1.58 µM) | 0.78 (≈ 1.58 µM) | 1.56 (≈ 3.16 µM) | 0.78 (≈ 1.58 µM) | 0.19 (≈ 0.385 µM) | 1.56 (≈ 3.16 µM) | 0.39 (≈ 0.79 µM) | 3.13 (≈ 6.34 µM) | – | – | 0.78 (≈ 1.58 µM) | sparingly soluble | insoluble | soluble | inhibited the growth of resistant bacteria ([1]; Escherichia coli K-12 R-5, inactivates Kanamycin B by acetylating the 6'-amino group): inhibited the growth; MIC ([3]; Proteus vulgaris OXK US): 0.78 µg/mL (≈ 1.58 µM); Solubility in methanol [17]: soluble; Solubility in water [17]: Very easily soluble; MIC [15, 28]: 0.39 µg/mL (≈ 0.79 µM); inhibited the growth of resistant bacteria ([16]; Pseudomonas aeruginosa GN 315, inactivates Kanamycin B by acetylating the 6'-amino group): inhibited the growth; MIC [16, 29]: 1.56 µg/mL (≈ 3.16 µM)
CNC1C(O)C(OC2C(N)CC(N)C(OC3OC(CN)CCC3N)C2O)OC(CO)C1(C)O (centres unmarked) [I-B2, 3"-N-Methyl-4"-C-methyl-3',4'-dideoxykanamycin B or its 4"-epimer] | 25 (≈ 52.1 µM) | 0.39 (≈ 0.813 µM) | – | – | – | 0.19 (≈ 0.396 µM) | 0.39 (≈ 0.813 µM) | 0.78 (≈ 1.63 µM) | 1.56 (≈ 3.25 µM) | 0.78 (≈ 1.63 µM) | 0.19 (≈ 0.396 µM) | 1.56 (≈ 3.25 µM) | 0.39 (≈ 0.813 µM) | 6.25 (≈ 13 µM) | – | 50 (≈ 104 µM) | 0.39 (≈ 0.813 µM) | sparingly soluble | insoluble | sparingly soluble | MIC ([3]; Proteus vulgaris OXK US): 0.78 µg/mL (≈ 1.63 µM); MIC [5, 26]: 3.13 µg/mL (≈ 6.53 µM); MTD [18]: 125 mg/kg; Solubility in methanol [17]: soluble; Solubility in water [17]: Very easily soluble; MIC [15, 28]: 0.39 µg/mL (≈ 0.813 µM)
NCC1OC(OC2C(N)CC(N)C(OC3OC(CO)C(O)C(N)C3O)C2O)C(O)C(O)C1O (centres unmarked) [KM-A, Kanamycin A, reference compound] | > 100 | – | 6.25 (≈ 12.9 µM) | 1.56 (≈ 3.22 µM) | > 100 | – | – | 3.13 (≈ 6.46 µM) | > 100 | – | – | – | – | 100 (≈ 206 µM) | 3.13 (≈ 6.46 µM) | – | – | – | – | – | MIC ([2]; Staphylococcus aureus): 3.13 µg/mL (≈ 6.46 µM); MIC ([6]; Staphylococcus aureus): 1.56 µg/mL (≈ 3.22 µM); MIC ([7]; ENTERITIDIS): 3.13 µg/mL (≈ 6.46 µM); MIC ([10]; Escherichia coli): 3.13 µg/mL (≈ 6.46 µM); MIC ([11]; Staphylococcus aureus): > 100 µg/mL; MIC [12, 27]: > 100 µg/mL; MIC [13, 30]: 6.25 µg/mL (≈ 12.9 µM); MIC [16, 29]: > 100 µg/mL
NC[C@H]1O[C@H](O[C@H]2[C@H](O)[C@@H](O[C@H]3O[C@H](CO)[C@@H](O)[C@H](N)[C@H]3O)[C@H](N)C[C@@H]2N)[C@H](N)[C@@H](O)[C@@H]1O [KM-B, Kanamycin B, reference compound] | > 100 | – | 6.25 (≈ 12.9 µM) | 3.13 (≈ 6.47 µM) | 100 (≈ 207 µM) | 0.78 (≈ 1.61 µM) | – | 1.56 (≈ 3.23 µM) | > 100 | – | 50 (≈ 103 µM) | 50 (≈ 103 µM) | – | 50 (≈ 103 µM) | 0.78 (≈ 1.61 µM) | 100 (≈ 207 µM) | – | – | – | – | MIC ([7]; ENTERITIDIS): 1.56 µg/mL (≈ 3.23 µM); MIC ([10]; Escherichia coli): 1.56 µg/mL (≈ 3.23 µM); MIC [13, 30]: 1.56 µg/mL (≈ 3.23 µM)
